Values after ≈ are worked out from the molar mass of the structure shown. Read-outs that look alike come from different tables or passages of the source.
System: Saccharomyces cerevisiae wild type BY4741
Test: MIC determination in Saccharomyces cerevisiae wild type BY4741
Type: cell-based
Method: In Vitro Antifungal Activity. MIC values for various strains were determined in accordance with the standard protocol from the National Committee of Clinical Laboratory Standards but using YEPD liquid medium instead of RPMI-1640 medium (National Committee of Clinical Laboratory Standards (Reference Method for Broth Dilution Antifungal Susceptibility Testing of Yeast, M27-A2, Approved Standard-Second Edition, Volume 22, Number 15, 1995). AmB was used as a reference. The strains were cultivated overnight in 5 mL YEPD liquid medium at 30 to 37° C. (30° C. for the strain BY4741; 37° C. for the strain DSY1764) with constant shaking. The saturated cultures were diluted to an ODB600 of 0.1 (3×10P^7 cells/mL). Using 24 wells plate, each well was prepared by adding 1% (12 μL) of DMSO solution of the tested polyene macrolide with 1% (12 μL) yeast cells solution and completed with YEPD (1.176 mL). The plates were sealed with Parafilm and then incubated for 18 to 36 hours at 30 to 37° C. (18 hours at 30° C. for the strain BY4741; 36 hours at 37° C. for the strain DSY1764). The optical density was read at 600 nm using 1.5 mL cuvettes. The MIC value was defined as the drug concentration needed to inhibit growth, less than 5% compared to a drug-free culture.
MIC values of various polyene macrolides of the invention in Saccharomyces cerevisiae wild type BY4741, a derivative of S288C, (with AmB as a reference) were determined as described hereinabove.
Based on the remarkable performance observed with the Diamine-AmB conjugate similar modifications of the aminosugar moiety were made on other polyene macrolides, such as for example Nystatin (1b) and Pimaricin (1c). The antifungal activity of these nystatin and pimaricin conjugates bearing two aminopropyl side chains was measured using Saccharomyces cerevisiae wild type BY4741.

[1] = Table 5, Saccharomyces cerevisiae wild type BY4741, read-out: MIC
[2] = Saccharomyces cerevisiae wild type BY4741, YEPD liquid medium, 18 hours at 30° C., read-out: MIC
[3] = Saccharomyces cerevisiae wild type BY4741

| MIC [1] [µM] | SMILES | MIC (Saccharomyces cerevisiae, 18 h) [µM] | further results |
| --- | --- | --- | --- |
| 4 (≈ 2.66 µg/mL) | C[C@@H]1C/C=C/C=C/C=C/C=C/[C@H](O[C@@H]2O[C@H](C)[C@@H](O)[C@H](N)[C@@H]2O)C[C@@H]2O[C@](O)(C[C@@H](O)C[C@H]3O[C@@H]3/C=C/C(=O)O1)C[C@H](O)[C@H]2C(=O)O [1c (Pimaricin), Pimaricin, reference compound] | – | – |
| – | C[C@@H]1[C@H](O)[C@@H](C)/C=C/C=C/C=C/C=C/C=C/C=C/C=C/[C@H](OC2O[C@H](C)[C@@H](O)[C@H](N(CCN)CCN)[C@@H]2O)CC2O[C@](O)(C[C@@H](O)C[C@@H](O)[C@H](O)CC[C@@H](O)C[C@@H](O)CC(=O)O[C@H]1C)C[C@H](O)[C@H]2C(=O)O (stereo partly drawn) [compound 2, N,N-Di-(2-aminoethyl)-AmB] | 0.25 (≈ 0.253 µg/mL) | – |
| – | C[C@@H]1[C@H](O)[C@@H](C)/C=C/C=C/C=C/C=C/C=C/C=C/C=C/[C@H](OC2O[C@H](C)[C@@H](O)[C@H](N(CCCO)CCCO)[C@@H]2O)CC2O[C@](O)(C[C@@H](O)C[C@@H](O)[C@H](O)CC[C@@H](O)C[C@@H](O)CC(=O)O[C@H]1C)C[C@H](O)[C@H]2C(=O)O (stereo partly drawn) [compound 4, N,N-Di-(3-hydroxypropyl)-AmB] | 0.5 (≈ 0.52 µg/mL) | – |
| – | C[C@@H]1[C@H](O)[C@@H](C)/C=C/C=C/C=C/C=C/C=C/C=C/C=C/[C@H](O[C@@H]2O[C@H](C)[C@@H](O)[C@H](N(CC(N)CCCCN)CC(N)CCCCN)[C@@H]2O)CC2O[C@](O)(C[C@@H](O)C[C@@H](O)[C@H](O)CC[C@@H](O)C[C@@H](O)CC(=O)O[C@H]1C)C[C@H](O)[C@H]2C(=O)O (stereo partly drawn) [compound 5, N,N-Di-(2,6-diaminohexyl)-AmB] | 0.08 (≈ 0.0922 µg/mL) | – |
| – | C[C@@H]1[C@H](O)[C@@H](C)/C=C/C=C/C=C/C=C/C=C/C=C/C=C/[C@H](O[C@@H]2O[C@H](C)[C@@H](O)[C@H](N(CCNC(=N)N)CCNC(=N)N)[C@@H]2O)CC2O[C@](O)(C[C@@H](O)C[C@@H](O)[C@H](O)CC[C@@H](O)C[C@@H](O)CC(=O)O[C@H]1C)C[C@H](O)[C@H]2C(=O)O [compound 6, N,N-Di-(2-ethylguanidine)-AmB] | 0.1 (≈ 0.109 µg/mL) | – |
| – | C[C@@H]1[C@H](O)[C@@H](C)/C=C/C=C/C=C/C=C/C=C/C=C/C=C/[C@H](O[C@@H]2O[C@H](C)[C@@H](O)[C@H](N3CCN(C(=O)CCCCCNC(=O)C(N)CCCCN)CC3)[C@@H]2O)CC2O[C@](O)(C[C@@H](O)C[C@@H](O)[C@H](O)CC[C@@H](O)C[C@@H](O)CC(=O)O[C@H]1C)C[C@H](O)[C@H]2C(=O)O (stereo partly drawn) [compound 7, 2,6-Diamino-N-[6-oxo-6-(piperazin-1-yl)-hexyl]-hexanamide-AmB] | – | MIC [2]: 0.1 µM (≈ 0.123 µg/mL) |
| – | C[C@@H]1[C@H](O)[C@@H](C)/C=C/C=C/C=C/C=C/C=C/C=C/C=C/[C@H](O[C@@H]2O[C@H](C)[C@@H](O)[C@H](N3CCN(C(=O)CCCCCNC(=O)C(N)CCCCNC(=N)N)CC3)[C@@H]2O)CC2O[C@](O)(C[C@@H](O)C[C@@H](O)[C@H](O)CC[C@@H](O)C[C@@H](O)CC(=O)O[C@H]1C)C[C@H](O)[C@H]2C(=O)O (stereo partly drawn) [compound 8, 2-Amino-6-guanidine-N-[6-oxo-6-(piperazin-1-yl)-hexyl]-hexanamide-AmB] | – | MIC [2]: 0.1 µM (≈ 0.128 µg/mL) |
| – | C[C@@H]1[C@H](O)[C@@H](C)/C=C/C=C/CC/C=C/C=C/C=C/C=C/[C@H](O[C@@H]2O[C@H](C)[C@@H](O)[C@H](N(CCCN)CCCN)[C@@H]2O)CC2O[C@](O)(C[C@@H](O)[C@H](O)CC[C@@H](O)C[C@@H](O)C[C@@H](O)CC(=O)O[C@H]1C)C[C@H](O)[C@H]2C(=O)O [compound 17, N,N-Di-(3-aminopropyl)-Nystatin] | – | MIC (Saccharomyces cerevisiae): 0.05 µM (≈ 0.052 µg/mL); antifungal activity compared with the native compounds 1b and 1c [3]: significantly more active |
| 0.3 (≈ 0.234 µg/mL) | C[C@@H]1C/C=C/C=C/C=C/C=C/[C@H](O[C@@H]2O[C@H](C)[C@@H](O)[C@H](N(CCCN)CCCN)[C@@H]2O)C[C@@H]2O[C@](O)(C[C@@H](O)C[C@H]3O[C@@H]3/C=C/C(=O)O1)C[C@H](O)[C@H]2C(=O)O [compound 18, N,N-Di-(3-aminopropyl)-Pimaricin] | – | antifungal activity compared with the native compounds 1b and 1c [3]: significantly more active |

| SMILES | MIC [1] [µM] | MIC (Saccharomyces cerevisiae, 18 h) [µM] | further results |
| --- | --- | --- | --- |
| C[C@@H]1[C@H](O)[C@@H](C)/C=C/C=C/CC/C=C/C=C/C=C/C=C/C(O[C@H]2O[C@H](C)[C@@H](O)[C@H](N)[C@@H]2O)CC2O[C@](O)(CC(O)C(O)CCC(O)CC(O)CC(O)CC(=O)O[C@H]1C)CC(O)C2C(=O)O (stereo partly drawn) [1b (Nystatin), Nystatin, reference compound] | 3.0 (≈ 2.78 µg/mL) | – | – |
